Reference: patent US20070244060A1, “Therapeutic Agent for Autoimmune Disease” (priority 2003, published 2007)

Legend:
Type in all cases: cell-based, human
[1] = system: rheumatoid synoviocytes (RA); test: ER stress-inducible apoptosis, ssDNA Apoptosis ELISA, rheumatoid synoviocytes; settings: RA synoviocytes (5 cases), 24 hours, FIG. 5
Method: (§1) The experiments were carried out as follows. […] Endoplasmic reticulum stress-inducible apoptosis was induced using tunicamycin at concentrations of 10, 30, and 100 μg/mL. Apoptosis was quantitated using the ssDNA Apoptosis ELISA kit from Chemicon International, Inc.

[2] = system: osteoarthritis synoviocytes (OA); test: ER stress-inducible apoptosis, ssDNA Apoptosis ELISA, osteoarthritis synoviocytes; settings: OA synoviocytes (5 cases), 24 hours, FIG. 5
Method: as §1

synoviocytes = test: Apoptosis induction in synoviocytes, nuclear condensation by Hoechst 33258 DNA staining; settings: FIG. 3B
Method: Then, synoviocytes were seeded at 2500 each to an eight-well Lab-Tek Chamber from the Nunc Company and were incubated for 24 hours in an incubator under 5% CO2 at 37° C. 67 nM siRNA was thereafter introduced into the synoviocytes using TransIT-TKO transfection reagent from the Miru Bio Corporation. After additional incubation for 48 hours in an incubator under 5% CO2 at 37° C., 50 μg/mL tunicamycin was added, followed by incubation for 48 hours under the same conditions. The cells were then fixed and nuclear condensation was confirmed by DNA staining with Hoechst 33258.

rheumatoid synoviocytes = test: WST-8 assay of proliferation activity of rheumatoid synoviocytes after siRNA treatment; settings: 96 hours after siRNA treatment; anti-GFP siRNA negative control = 100; FIG. 3A
Method: The experiments were carried out as follows. Rheumatoid synoviocytes were seeded at 160 each into a 96-well, flat-bottom plate from the Falcon Co. After 24 hours, treatment was carried with anti-Synoviolin siRNA or anti-GFP siRNA, and the proliferation activity was investigated after an additional 96 hours. The GFP was used in this case as a negative control. The degree of cell proliferation was measured using a WST-8 assay from Dojindo Laboratories.

| Substance | apoptosis (ssDNA Apoptosis ELISA) ([1]; tunicamycin 10 μg/mL) | apoptosis (ssDNA Apoptosis ELISA) ([1]; tunicamycin 30 μg/mL) | apoptosis (ssDNA Apoptosis ELISA) ([1]; tunicamycin 100 μg/mL) | apoptosis (ssDNA Apoptosis ELISA) ([2]; tunicamycin 10 μg/mL) | apoptosis (ssDNA Apoptosis ELISA) ([2]; tunicamycin 30 μg/mL) | apoptosis (ssDNA Apoptosis ELISA) ([2]; tunicamycin 100 μg/mL) | apoptosis induction in synoviocytes (synoviocytes; 50 μg/mL tunicamycin, 48 hours) | proliferation activity of rheumatoid synoviocytes (GFP=100) (rheumatoid synoviocytes) | apoptosis induction in synoviocytes, co-use of siRNA with tunicamycin (synoviocytes; 67 nM siRNA 48 hours, then 50 μg/mL tunicamycin 48 hours) |
| --- | --- | --- | --- | --- | --- | --- | --- | --- | --- |
| tunicamycin | 0.73±0.30 | 0.84±0.35 | 0.81±0.28 | 2.18±1.19 | 2.76±1.84 | 3.65±2.53 | caused apoptosis induction |  |  |
| anti-Synoviolin siRNA: small interfering RNA against the Synoviolin gene; sense CGUUCCUGGUACGCCGUCAUU (SEQ ID NO: 1), antisense UGACGGCGUACCAGGAACGUU (SEQ ID NO: 2) (listed as RNA, chemistry not given here) |  |  |  |  |  |  |  | about 60% | increased |
